According to article PMC12218921, “An adaptive peptide-binding site in ubiquitin receptor hRpn13 revealed by structural studies” (Nature Communications, 2025):
No end group written: not given here.

Key:
[1] = target: T1, hRpn13_ΔMTT (Homo sapiens, UniProt Q16186); assay: Competition assay by fluorescence polarization (unlabeled peptide vs TAMRA-hRpn2 (940–953)); format: binding
T1 construct: recombinant plasmid of hRpn13 Pru (1–150) cloned into the pRSET vector; GST (N, cleaved yes); residual Gly-Ser (^cG-^dS) left after cleavage; made in house; host or cells: Escherichia coli BL21 (DE3); pGEX-4T-1 plasmid synthesized by GenScript (Addgene 237412)
T1 sequence (Q16186 4-150, stated change not applied): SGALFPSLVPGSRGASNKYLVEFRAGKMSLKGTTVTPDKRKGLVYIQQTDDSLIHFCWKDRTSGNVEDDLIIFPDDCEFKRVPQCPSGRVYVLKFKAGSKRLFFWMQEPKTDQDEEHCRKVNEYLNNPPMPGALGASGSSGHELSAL

[2] = target: T1, hRpn13_ΔMTT; assay: 1H-15N HSQC NMR titration / chemical shift perturbation (CSP), 0.1 mM 15N-labeled hRpn13_ΔMTT with unlabeled peptide; format: binding
Description: The similar spectral effects by adding ENT or ENT_M1S is readily apparent by quantifying and plotting the shifting across the Pru amino acid sequence (Supplementary Fig. 10b, c).
All ^1H-^15N HSQC experiments were acquired on samples dissolved in NMR buffer (20 mM sodium phosphate, pH 6.5, 50 mM NaCl, 1 mM TCEP, 10% D2O) unless specified, in which case 2 mM DTT replaced TCEP. The samples were purified in DTT-containing buffer and then exchanged into NMR buffer by using Zeba Protein Desalting columns (Thermo Fisher Scientific). The pH was measured and adjusted to 6.5. All NMR experiments were performed at 25 °C on a Bruker Advance 600 MHz spectrometer equipped with a cryogenically cooled probe. The data were processed by NMRpipe[46] (version 11.5) and spectra visualized and analyzed with NMR-FAM-SPARKY[47] (version 3.190) by using previous chemical shift assignments[12],[23] and NMRbox[48]. The amide nitrogen and hydrogen chemical shift perturbations (CSP) were mapped for each amino acid according to Eq. 1.1 CSP=0.2ΔδN2+ΔδH2
ΔδH, change in amide proton value (in parts per million); ΔδN, change in amide nitrogen value (in parts per million).
Supplementary Figure 9: 2D NMR experiments indicate ENT binding to hRpn13 Pru. a) ^1H-^15N HSQC spectrum of 0.1 mM ^15N-labeled hRpn13 (1-150, black) or hRpn13_ΔMTT (green). Select residues are labeled with amino acids in the Pru helix, proteasome binding region, and termini in blue, purple, and orange, respectively. Arrows indicate direction of shifting. b, c) ^1H-^15N HSQC spectra of 0.1 mM of ^15N-labeled hRpn13_ΔMTT alone (black) or with ENT present at equimolar (red), 2-fold (orange), 5-fold (yellow), 10-fold (green), 15-fold (blue), or 20-fold (purple) molar excess. […] All spectra were acquired at 600 MHz and 25°C in 20 mM sodium phosphate, pH 6.5, 100 mM NaCl, 1 mM TCEP, 10% D2O. ppm, part per million.

[3] = tested on: hRpn13 F76 arginine substitution; details: cited from earlier work

GPGSMTT [ENT]
concentration required to completely decrease the FP to background levels ([1]; 80 nM hRpn13_ΔMTT, 10 nM TAMRA-hRpn2 (940–953), N = 6): > 3 mM
concentrations at which peptides can displace hRpn2 from hRpn13 ([1]; FP competition): > 0.5 mM
IC50 ([1]; peer review file, FP competition with TAMRA-hRpn2 (940-953), read-out: IC50 (FP decreased to background levels)): > 3 mM
HSQC signal shifting of hRpn13_ΔMTT ([2]; 100 μM 15N-hRpn13_ΔMTT, peptide up to 20-fold molar excess, pH 6.5, 25 °C, 600 MHz): small concentration-dependent shifting of the same (T114, D117-E119, C121) and additional (W61, M109, H120, H145) hRpn13 amide signals
strength of binding to hRpn13 Pru (by HSQC) ([2]; 100 μM 15N-hRpn13_ΔMTT, varying molar ratios): weak interaction between ENT and hRpn13 Pru
CSP A6 ([2]; 20-fold molar excess peptide): 0.001342
CSP A28 ([2]; 20-fold molar excess peptide): 0.00743
CSP A100 ([2]; 20-fold molar excess peptide): 0.002049
CSP A136 ([2]; 20-fold molar excess peptide): 0.002049
CSP A139 ([2]; 20-fold molar excess peptide): 0.0004472
CSP A149 ([2]; 20-fold molar excess peptide): 0.003493
CSP C60 ([2]; 20-fold molar excess peptide): 0.003715
CSP C80 ([2]; 20-fold molar excess peptide): 0.002049
CSP C88 ([2]; 20-fold molar excess peptide): 0.002449
CSP C121 ([2]; 20-fold molar excess peptide): 0.02471
CSP D41 ([2]; 20-fold molar excess peptide): 0
CSP D53 ([2]; 20-fold molar excess peptide): 0.002049
CSP D54 ([2]; 20-fold molar excess peptide): 0.001789
CSP D63 ([2]; 20-fold molar excess peptide): 0.004494
CSP D71 ([2]; 20-fold molar excess peptide): 0.007
CSP D72 ([2]; 20-fold molar excess peptide): 0.007759
CSP D78 ([2]; 20-fold molar excess peptide): 0.005899
CSP D79 ([2]; 20-fold molar excess peptide): 0.002864
CSP D115 ([2]; 20-fold molar excess peptide): 0.009859
CSP D117 ([2]; 20-fold molar excess peptide): 0.033
CSP E25 ([2]; 20-fold molar excess peptide): 0.009859
CSP E70 ([2]; 20-fold molar excess peptide): 0.005459
CSP E81 ([2]; 20-fold molar excess peptide): 0.001342
CSP E111 ([2]; 20-fold molar excess peptide): 0.01601
CSP E118 ([2]; 20-fold molar excess peptide): 0.06429
CSP E119 ([2]; 20-fold molar excess peptide): 0.03311
CSP E146 ([2]; 20-fold molar excess peptide): 0.01203
CSP F8 ([2]; 20-fold molar excess peptide): 0.002049
CSP F26 ([2]; 20-fold molar excess peptide): 0.0264
CSP F59 ([2]; 20-fold molar excess peptide): 0.002864
CSP F76 ([2]; 20-fold molar excess peptide): 0.007603
CSP F82 ([2]; 20-fold molar excess peptide): 0.004219
CSP F98 ([2]; 20-fold molar excess peptide): 0.009391
CSP F106 ([2]; 20-fold molar excess peptide): 0.002864
CSP F107 ([2]; 20-fold molar excess peptide): 0.001789
CSP G5 ([2]; 20-fold molar excess peptide): 0
CSP G17 ([2]; 20-fold molar excess peptide): 0.002683
CSP G29 ([2]; 20-fold molar excess peptide): 0.003286
CSP G45 ([2]; 20-fold molar excess peptide): 0.006148
CSP G67 ([2]; 20-fold molar excess peptide): 0.001342
CSP G91 ([2]; 20-fold molar excess peptide): 0.002049
CSP G101 ([2]; 20-fold molar excess peptide): 0.004669
CSP G135 ([2]; 20-fold molar excess peptide): 0.002449
CSP G138 ([2]; 20-fold molar excess peptide): 0.001095
CSP G141 ([2]; 20-fold molar excess peptide): 0.002049
CSP G144 ([2]; 20-fold molar excess peptide): 0.001342
CSP H58 ([2]; 20-fold molar excess peptide): 0.007057
CSP H120 ([2]; 20-fold molar excess peptide): 0.07737
CSP H145 ([2]; 20-fold molar excess peptide): 0.06834
CSP I49 ([2]; 20-fold molar excess peptide): 0.002408
CSP I57 ([2]; 20-fold molar excess peptide): 0.004025
CSP I75 ([2]; 20-fold molar excess peptide): 0.001673
CSP K21 ([2]; 20-fold molar excess peptide): 0.0004472
CSP K30 ([2]; 20-fold molar excess peptide): 0.01021
CSP K34 ([2]; 20-fold molar excess peptide): 0.002408
CSP K42 ([2]; 20-fold molar excess peptide): 0.00502
CSP K62 ([2]; 20-fold molar excess peptide): 0.001342
CSP K83 ([2]; 20-fold molar excess peptide): 0.005367
CSP K97 ([2]; 20-fold molar excess peptide): 0.002449
CSP K99 ([2]; 20-fold molar excess peptide): 0.001095
CSP K103 ([2]; 20-fold molar excess peptide): 0.003131
CSP K113 ([2]; 20-fold molar excess peptide): 0.008729
CSP K123 ([2]; 20-fold molar excess peptide): 0.01565
CSP L7 ([2]; 20-fold molar excess peptide): 0.002408
CSP L11 ([2]; 20-fold molar excess peptide): 0.001342
CSP L23 ([2]; 20-fold molar excess peptide): 0.004382
CSP L33 ([2]; 20-fold molar excess peptide): 0.002
CSP L46 ([2]; 20-fold molar excess peptide): 0.004899
CSP L56 ([2]; 20-fold molar excess peptide): 0.002236
CSP L73 ([2]; 20-fold molar excess peptide): 0.003493
CSP L96 ([2]; 20-fold molar excess peptide): 0.001095
CSP L105 ([2]; 20-fold molar excess peptide): 0.006017
CSP L128 ([2]; 20-fold molar excess peptide): 0.003
CSP L137 ([2]; 20-fold molar excess peptide): 0.002449
CSP L147 ([2]; 20-fold molar excess peptide): 0.01114
CSP L150 ([2]; 20-fold molar excess peptide): 0.003493
CSP M31 ([2]; 20-fold molar excess peptide): 0.003131
CSP M109 ([2]; 20-fold molar excess peptide): 0.01978
CSP M133 ([2]; 20-fold molar excess peptide): 0.001095
CSP N20 ([2]; 20-fold molar excess peptide): 0.002049
CSP N68 ([2]; 20-fold molar excess peptide): 0.001095
CSP N125 ([2]; 20-fold molar excess peptide): 0.002049
CSP N129 ([2]; 20-fold molar excess peptide): 0.004025
CSP N130 ([2]; 20-fold molar excess peptide): 0.001673
CSP Q50 ([2]; 20-fold molar excess peptide): 0.003742
CSP Q51 ([2]; 20-fold molar excess peptide): 0.004025
CSP Q87 ([2]; 20-fold molar excess peptide): 0.003742
CSP R16 ([2]; 20-fold molar excess peptide): 0.001095
CSP R27 ([2]; 20-fold molar excess peptide): 0.001095
CSP R43 ([2]; 20-fold molar excess peptide): 0.002191
CSP R64 ([2]; 20-fold molar excess peptide): 0.004025
CSP R92 backbone ([2]; 20-fold molar excess peptide): 0.003131
CSP R92 sidechain ([2]; 20-fold molar excess peptide): 0.016
CSP R104 ([2]; 20-fold molar excess peptide): 0.008112
CSP R122 ([2]; 20-fold molar excess peptide): 0.01435
CSP S4 ([2]; 20-fold molar excess peptide): 0.009602
CSP S10 ([2]; 20-fold molar excess peptide): 0.001342
CSP S15 ([2]; 20-fold molar excess peptide): 0.001342
CSP S19 ([2]; 20-fold molar excess peptide): 0.001342
CSP S32 ([2]; 20-fold molar excess peptide): 0.001342
CSP S55 ([2]; 20-fold molar excess peptide): 0.002864
CSP S66 ([2]; 20-fold molar excess peptide): 0.004472
CSP S102 ([2]; 20-fold molar excess peptide): 0.002049
CSP S140 ([2]; 20-fold molar excess peptide): 0.001342
CSP S142 ([2]; 20-fold molar excess peptide): 0.002049
CSP S143 ([2]; 20-fold molar excess peptide): 0.002236
CSP S148 ([2]; 20-fold molar excess peptide): 0.003286
CSP T36 ([2]; 20-fold molar excess peptide): 0.00882
CSP T37 ([2]; 20-fold molar excess peptide): 0.003578
CSP T39 ([2]; 20-fold molar excess peptide): 0.001342
CSP T52 ([2]; 20-fold molar excess peptide): 0
CSP T65 ([2]; 20-fold molar excess peptide): 0.001342
CSP T114 ([2]; 20-fold molar excess peptide): 0.02379
CSP V12 ([2]; 20-fold molar excess peptide): 0.002049
CSP V24 ([2]; 20-fold molar excess peptide): 0.003715
CSP V47 ([2]; 20-fold molar excess peptide): 0.008497
CSP V69 ([2]; 20-fold molar excess peptide): 0.004494
CSP V93 ([2]; 20-fold molar excess peptide): 0.004494
CSP V95 ([2]; 20-fold molar excess peptide): 0.002683
CSP V124 ([2]; 20-fold molar excess peptide): 0.0139
CSP W61 ([2]; 20-fold molar excess peptide): 0.0278
CSP W108 ([2]; 20-fold molar excess peptide): 0.005899
CSP Y22 ([2]; 20-fold molar excess peptide): 0.01048
CSP Y48 ([2]; 20-fold molar excess peptide): 0.003715
CSP Y94 ([2]; 20-fold molar excess peptide): 0.00502
CSP Y127 ([2]; 20-fold molar excess peptide): 0.00531
effect at Pru-B-binding surface (HSQC) ([2]; e.g. F76 and D78 amide signals): No effects were observed at the Pru-B-binding surface

ubiquitin
hRpn13 binding to ubiquitin on arginine substitution of F76 [3]: abolishes hRpn13 binding to ubiquitin
